Measurements as given in patent US12083172B2, “Vaccines against an oncogenic isoform of HER2 (ErbB2) and methods of using the same” (Duke University, priority 2014, dated 2024).
Entries after “also recorded” stand apart in the source; their conditions may differ. Like-named read-outs stand apart in the source and are kept apart here.

Legend:
[1] = tested on: MM3MG cells stably expressing HER2d16; settings: MM3MG-HER2d16 s.c. in SCID-Beige mice; for effect of lapatinib on growth of HER2d16 tumors: lapatinib oral gavage 75 mg/kg, 5 times a week, from day 8, FIG. 7, 75 mg/kg
Procedure: (§1) MM3MG cells stably expressing the indicated genes were implanted subcutaneously into SCID-Beige mice (100,000 per mouse in PBS) at days 0. Mice were treated weekly with T-DM1 via tail vein injection (200 μg/mouse) beginning at day 10. Tumor growth was measured by calipers at the indicated days (N=5, bars represent SE).
MM3MG cells stably expressing the indicated genes were implanted subcutaneously into SCID-Beige mice (100,000 per mouse in PBS) at days 0. Mice were treated […] with lapatinib by oral gavage (75 mg/kg/5 days week) at day 8. Tumor growth was measured by calipers at the indicated days (N=5, bars represent SE).
(§2) Experiments using BALB/c, and SCID-Beige mice (obtained from Jackson Labs) were done in accordance with Duke Institutional Animal Care and Use Committee-approved protocols. For tumor vaccine experiments, Human HER2-transgenic mice (kindly provided by Dr. Wei-Zen Wei, Wayne State University, Detroit, MI^4) were crossed with BALB/c mice (Jackson Labs) to permit implantation of MM3MG-HER2d16 tumors and genotyped by PCR as previously described^5. In immnodeficient animals, stable cells were injected s.c. into the flank of SCID-beige mice (at indicated cells/animal) and measured as indicated. Tumor measurements were made using calipers and volumes calculated using the formula [v=width×width×(length/2)] whereas statistical differences were calculated using a mixed effects regression model using autoregressive covariance. In treatment experiments, T-DM1 was weekly delivered via tail vein (200 μg/mouse) while Lapatinib was given by oral gavage (5 times a week, 75 mg/kg).

[2] = tested on: HER2-WT MM3MG; settings: MM3MG-HER2-WT s.c. in SCID-Beige mice; T-DM1 weekly via tail vein, 200 μg/mouse, from day 10; FIG. 6
Procedure: as §1, §2

Compound	effect of lapatinib on growth of HER2d16 tumors [1]	effect of lapatinib on growth of HER2d16 tumors ([1]; listed as lapatinib)	effect of T-DM1 on growth of HER2d16 tumors ([1]; T-DM1 weekly via tail vein, 200 μg/mouse, from day 10, FIG. 6)	effect of T-DM1 on growth of HER2-WT MM3MG tumors [2]
CS(=O)(=O)CCNCc1ccc(-c2ccc3ncnc(Nc4ccc(OCc5cccc(F)c5)c(Cl)c4)c3c2)o1 [Lapatinib]	only had a minor effect	resistant	–	–
Trastuzumab-DM1 [T-DM1]	–	–	more resistant; also recorded: only weakly impacted	significantly suppressed
